Laboratory results from ChEMBL document CHEMBL3137381, “MMV Box Onchocerca lienalis screening set”.

Experiments:
Assay type in all cases: functional
Onchocerca lienalis [1] = test: MMV: Percent motility assay at a compound concentration of 1.25e-5 M. Activity score legend: 3: Active, 2: Moderately active; 1: Inactive, 0: Toxic; settings: at 12.5 µM
Onchocerca lienalis [2] = test: MMV: Percent motility assay at a compound concentration of 3.1e-6 M. Activity score legend: 3: Active, 2: Moderately active; 1: Inactive, 0: Toxic; settings: at 3.1 µM
Onchocerca lienalis [3] = test: MMV: Percent motility assay at a compound concentration of 1.9e-7 M. Activity score legend: 3: Active, 2: Moderately active; 1: Inactive, 0: Toxic; settings: at 0.19 µM
Onchocerca lienalis [4] = test: MMV: Percent motility assay at a compound concentration of 7.8e-7 M. Activity score legend: 3: Active, 2: Moderately active; 1: Inactive, 0: Toxic; settings: at 0.78 µM

Structure (SMILES)	Motility (Onchocerca lienalis [1])	Motility (Onchocerca lienalis [2])	Motility (Onchocerca lienalis [3])	Motility (Onchocerca lienalis [4])
O=C(Nc1ccccc1O)c1ccc(Oc2cccc(C(=O)Nc3ccccc3O)c2)cc1	100%	100%	100%	100%
Cc1ccc(-c2cc3c(nn2)-c2ccccc2C3=O)cc1	100%	100%	100%	100%
Cc1ccc(Nc2nc(-c3ccccn3)cs2)cc1	100%	100%	100%	100%
Cl.N=c1n(CCN2CCCCC2)c2ccccc2n1CC(O)c1cccc(Br)c1 (configuration not stated)	100%	100%	100%	100%
COc1cccc(O)c1CN1CCC2(CCCN(Cc3ccc(F)cc3)C2)C1 (configuration not stated)	100%	100%	100%	100%
O=C(NCc1ccco1)C1CCN(S(=O)(=O)c2ccc(Cl)cc2)CC1	100%	100%	100%	100%
COc1ccc(C(=O)Nc2ccc3nc(N4CCCCC4)cc(C)c3c2)cc1OC	100%	100%	100%	100%
FC(F)(F)c1ccc(Nc2nnnc3ccccc23)cc1	100%	100%	100%	100%
c1ccc(-c2ccc(-c3nc4ccccc4[nH]3)cc2)cc1	66.6%	100%	100%	100%
CCC(C)NCC(O)(c1ccc(Cl)cc1)c1ccc(Cl)cc1 (configuration not stated)	100%	100%	100%	100%
COc1cccc(NC(=O)Cn2c(C)c(C#N)c3ccccc32)c1	100%	100%	100%	100%
COCCNC(=O)c1ccc(OC2CCN(Cc3ccc(F)c(F)c3)CC2)c(Cl)c1	46.6%	100%	100%	100%
CC(C)=CCN1CCC(C(=O)Nc2ccc(-c3nc4ccccc4[nH]3)cc2)CC1	100%	100%	100%	100%
O=C(CCc1ccco1)NC1CCN(CC2(c3ccc(Cl)cc3)CCC2)CC1	100%	100%	100%	100%
FC(F)(F)c1cccc(Nc2nc(-c3ccccc3)nc3ncccc23)c1	100%	100%	100%	100%
CCN1CCN(c2cc(C)c3cc(NC(=O)c4ccc(OC)c(OC)c4)ccc3n2)CC1	100%	100%	100%	100%
COc1ccc(C(=O)Nc2nonc2-c2ccc(OC)c(OC)c2)cc1Cl	100%	100%	100%	100%
COc1ccc(CNC2CCN(c3ccc(NC(=O)c4cccc(Cl)c4)cc3)CC2)cc1OC	100%	100%	100%	100%
COCCN(C(=O)Cc1cccs1)C(C(=O)NCc1ccc(OC)cc1)c1ccc(C(C)C)cc1 (configuration not stated)	46.6%	100%	100%	100%
CC(NCc1ccccc1)c1cc(Cl)ccc1O (configuration not stated)	100%	100%	100%	100%
FC(F)(F)c1cccc(CNC2CCN(CCc3ccccc3)CC2)c1	100%	100%	100%	100%
Oc1ccc(Cl)cc1CNc1nc2ccccc2[nH]1	66.6%	100%	100%	100%
CCOc1cc(Cl)c(C(C)NC(=O)c2ccccc2)cc1OCC (configuration not stated)	100%	100%	100%	100%
O=C(c1ccccc1F)N(Cc1ccc(Cl)cc1)c1ccccn1	100%	100%	100%	100%
COc1ccc(C(=O)Nc2ccc(Cl)cc2C(=O)Nc2ccncc2)cc1	100%	100%	100%	100%
O=C(Nc1ccc(CN2CCOCC2)cc1)c1ccc(-c2ccc(Br)cc2)o1	100%	100%	100%	100%
O=C(Nc1ccc(Cl)cc1)N1CCN(c2ccc3nncn3n2)CC1	100%	100%	100%	100%

Structure (SMILES)	Motility (Onchocerca lienalis [1])	Motility (Onchocerca lienalis [2])	Motility (Onchocerca lienalis [3])	Motility (Onchocerca lienalis [4])
CN(C)c1ccc(-c2nc3cc(N)ccc3[nH]2)cc1	33.33%	66.66%	100%	100%
O=C(CSc1ccc2nnc(-c3cccc(F)c3)n2n1)Nc1ccc2c(c1)OCO2	100%	100%	100%	100%
Cc1c(C)n(Cc2ccc(F)cc2)c2ccc(C(=O)NCc3ccco3)cc12	100%	100%	100%	100%
CCN(CC)c1ccc(NC(=O)c2cccs2)cc1	100%	100%	100%	100%
CCCCNCC(O)(c1ccc(Cl)cc1)c1ccc(Cl)cc1	100%	100%	100%	100%
CCn1c(SCC(=O)Nc2cc(C(F)(F)F)ccc2Cl)nc2ccccc2c1=O	100%	100%	100%	100%
Cc1ccc(Cn2c(N3CCC(C(=O)NCc4cccs4)CC3)nc3ccccc32)cc1	100%	100%	100%	100%
O=C(Nc1ccsc1C(=O)NC1CCCCC1)c1ccc(F)cc1	100%	100%	100%	100%
O=C(Nc1ccc(Cl)cc1C(=O)Nc1ccncc1)c1ccc(Cl)cc1Cl	100%	100%	100%	100%
O=C(Nc1cccc(C(F)(F)F)c1)c1cc(Cl)ccc1O	0%	53.33%	100%	100%
CCOc1cccc2sc(N(Cc3cccnc3)C(=O)C3CCCCC3)nc12	100%	100%	100%	100%
CCOc1ccc(-c2nonc2NC(=O)c2cccc(C)c2)cc1OCC	100%	100%	100%	100%
CCN(CC)c1cc(C)c2cc(NC(=O)c3cccc(OC)c3)ccc2n1	100%	100%	100%	100%
CC(C)(C)CC(C)(C)NCC(O)COc1ccc2c(c1)CCC2.Cl (configuration not stated)	100%	100%	100%	100%
CCOc1ccc(/C=C/c2nc(=O)c3ccccc3o2)cc1	100%	100%	100%	100%
O=C(Nc1ccccc1O)c1ccc(-c2ccc(Cl)cc2Cl)o1	100%	100%	100%	100%
O=C(Nc1nc(-c2ccccn2)cs1)c1ccccc1Br	0%	60%	100%	100%
CC(O)(c1ccc(Cl)cc1)C(CN1CCCCC1)c1ccccc1.Cl (configuration not stated)	66.6%	100%	100%	100%
CCCCc1ccc(NS(=O)(=O)c2cc3c4c(c2)CCN4C(=O)CC3)cc1	100%	100%	100%	100%
CCOc1ccc(-c2nc(NC(=O)c3cccc(S(C)(=O)=O)c3)sc2C)cc1	100%	100%	100%	100%
CCOc1ccccc1CNC(=O)C1c2ccccc2C(=O)N(CC(C)C)C1c1cccs1 (configuration not stated)	100%	100%	100%	100%
COc1ccccc1N1CCN(C(CNS(=O)(=O)c2ccc(Cl)cc2)c2cccnc2)CC1 (configuration not stated)	100%	100%	100%	100%
COc1ccc(C2Sc3ccccc3N=C3C2=C(O)c2ccccc23)cc1 (configuration not stated)	100%	100%	100%	100%
CCN(CC)CCCNc1nc(-c2ccc(Cl)cc2)nc2ccccc12	66.6%	100%	100%	100%
CC1CCCCN1CCCNC(=O)c1ccc2c(c1)sc1nc(-c3ccc(F)cc3)cn12 (configuration not stated)	80%	100%	100%	100%
C=C(C)CCC(C)N1CCC(N2CCC(C(=O)NCCc3ccccc3)CC2)CC1 (configuration not stated)	100%	100%	100%	100%
